From ChEMBL document CHEMBL1201862, “PubChem BioAssay data set” (2004)
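Cells were grown in 96-well plates and exposed to each compound for 48 hours at five concentrations; endpoints were interpolated linearly between bracketing concentrations, or set to the highest concentration if not reached. GI50 = concentration required for 50% inhibition of growth.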 Calls of active or inactive are those of the source. Cut-off read from the data, not from the text of the source: active = GI50 up to about 1.1 µM and inactive = higher.

Assays:
Assay in all cases: inhibition of tumour cell growth, NCI panel, 48 h
DLD-1 = tested on: DLD-1
DMS-114 = tested on: DMS-114
HCT-15 = tested on: HCT-15
HL-60 = tested on: HL-60
KM-20L2 = tested on: KM-20L2
LOX IMVI = tested on: LOX IMVI
LXFL 529 = tested on: LXFL 529
M14 = tested on: M14
M19-MEL = tested on: M19-MEL
MOLT-4 = tested on: MOLT-4
NCI-H226 = tested on: NCI-H226
NCI-H522 = tested on: NCI-H522
NCI/ADR-RES = tested on: NCI/ADR-RES
OVCAR-4 = tested on: OVCAR-4
PC-3 = tested on: PC-3
SF-295 = tested on: SF-295
SN12C = tested on: SN12C
SNB-19 = tested on: SNB-19
U-251 = tested on: U-251
UO-31 = tested on: UO-31

| Structure (SMILES) | GI50 (DLD-1) | GI50 (DMS-114) | GI50 (HCT-15) | GI50 (HL-60) | GI50 (KM-20L2) | GI50 (LOX IMVI) | GI50 (LXFL 529) | GI50 (M14) | GI50 (M19-MEL) | GI50 (MOLT-4) | GI50 (NCI-H226) | GI50 (NCI-H522) | GI50 (NCI/ADR-RES) | GI50 (OVCAR-4) | GI50 (PC-3) | GI50 (SF-295) | GI50 (SN12C) | GI50 (SNB-19) | GI50 (U-251) | GI50 (UO-31) |
| --- | --- | --- | --- | --- | --- | --- | --- | --- | --- | --- | --- | --- | --- | --- | --- | --- | --- | --- | --- | --- |
| COc1ccc(CC(C#N)c2cc(OC)c(OC)c(OC)c2)cc1 (configuration not stated) | 0.11 µM (active) | 0.0418 µM (active) | 0.0276 µM | 0.0258 µM (active) | 0.0541 µM (active) | 0.0328 µM (active) | 0.171 µM (active) | 0.0472 µM (active) | 0.0676 µM (active) | 0.121 µM (active) | 0.773 µM (active) | 0.0267 µM (active) | 0.0185 µM (active) | 7.29 µM (inactive) | 0.014 µM (active) | 0.0184 µM (active) | 0.135 µM (active) | 0.0986 µM (active) | 0.0568 µM (active) | 0.442 µM (active) |
| Cc1nc2cc(/N=N/c3c(O)ccc4ccccc34)ccc2[nH]1 | 24 µM (inactive) | 25.8 µM (inactive) | 32.3 µM | 15.1 µM (inactive) | > 100 µM (inactive) | 18.5 µM (inactive) | 19.9 µM (inactive) | 38.4 µM (inactive) | 23.2 µM (inactive) | 21 µM (inactive) | > 62.2 µM (inactive) | 22.8 µM (inactive) | 24.3 µM (inactive) | 18.8 µM (inactive) | 21 µM (inactive) | 41.1 µM (inactive) | 36.9 µM (inactive) | > 96.4 µM (inactive) | 27.3 µM (inactive) | 45.1 µM (inactive) |
| CN(C)CCCCN1CCc2c(n(C)c3ccccc23)C1=O | 60.4 µM (inactive) | > 80.7 µM (inactive) | 39.4 µM |  | 33 µM (inactive) | 25.9 µM (inactive) | 19.4 µM (inactive) | 18.5 µM (inactive) | 38 µM (inactive) | 48.1 µM (inactive) | > 61.5 µM (inactive) | 55.3 µM (inactive) | 39.4 µM (inactive) | > 86.7 µM (inactive) |  | 48.4 µM (inactive) | 68.1 µM (inactive) | > 76.9 µM (inactive) |  | 56.9 µM (inactive) |
